Values quoted from earlier work as cited in PMC7113793 (Antiviral Research, 2017).

Tests used:
[1] = biological target: Giardia lamblia carbamate kinase
aldehyde dehydrogenase = conditions: in vivo
[2] = biological target: Citrullus vulgaris urease; conditions: read-out: Kis

## O=C(O)CN(CCN(CC(=O)O)CC(=O)O)CC(=O)O [EDTA]
PL^pro
  loss of PL^pro activity: 62%

## CCN(CC)C(=S)SSC(=S)N(CC)CC [disulfiram]
[1]
  IC50: 0.6 to 1.4 µM
Aldehyde dehydrogenase
  enzyme inhibition as compared to the activity of the control: 77%
[2]
  Ki: 67.6 µM
